This assay is described as follows: Inhibition of SARS-CoV 3C-like protease using Dabcyl-KTSAVLQ-SGFRKME-Edans peptide as substrate incubated for 60 mins by FRET assay.
Turning to `COc1cccc2[nH]c(C(=O)N[C@@H](CC(C)C)C(=O)N[C@@H](C[C@@H]3CCNC3=O)C(=O)COC(=O)CN(C)C)cc12`, the Ki was 2.98 nM. In the case of `COc1cccc2[nH]c(C(=O)N[C@@H](CC(C)C)C(=O)N[C@@H](C[C@@H]3CCNC3=O)C(=O)COC(=O)[C@@H]3CCCN3C)cc12` it was 2.47 nM; in that of `COc1cccc2[nH]c(C(=O)N[C@@H](CC(C)C)C(=O)N[C@@H](C[C@@H]3CCNC3=O)C(=O)COC(=O)c3c(C)ncnc3C)cc12`, 0.928 nM; in that of `COc1cccc2[nH]c(C(=O)N[C@@H](CC(C)C)C(=O)N[C@@H](C[C@@H]3CCNC3=O)C(=O)COC(=O)[C@H]3CCCCN3C)cc12`, 1.42 nM. `COc1cccc2[nH]c(C(=O)N[C@@H](CC(C)C)C(=O)N[C@@H](C[C@@H]3CCNC3=O)C(=O)COC(=O)[C@H]3CCCN3C)cc12` gave an inhibitory constant (Ki) of 0.0321 nM. In the case of `COc1cccc2[nH]c(C(=O)N[C@@H](CC(C)C)C(=O)N[C@@H](C[C@@H]3CCNC3=O)C(=O)COC(=O)c3ccncc3)cc12` it was 0.598 nM.

The values are drawn from ChEMBL document CHEMBL4828780, “Novel Compounds for Preventing SARS-CoV-2 Viral Replication and Treating COVID-19” (ACS Med Chem Lett, 2021).
